{"source": "ChEMBL document CHEMBL1201862", "about": "“PubChem BioAssay data set” (2004)", "experiment_in_all_cases": "DTP human tumour cell line panel, 48 h", "key": {"SF-295": {"system": "SF-295"}, "HCC 2998": {"system": "HCC 2998"}, "NCI-H23": {"system": "NCI-H23"}, "786-0": {"system": "786-0"}, "ACHN": {"system": "ACHN"}, "BT-549": {"system": "BT-549"}, "MDA-MB-231": {"system": "MDA-MB-231"}, "U-251": {"system": "U-251"}, "SNB-75": {"system": "SNB-75"}, "MDA-MB-435": {"system": "MDA-MB-435"}, "SF-268": {"system": "SF-268"}, "OVCAR-3": {"system": "OVCAR-3"}, "NCI-H460": {"system": "NCI-H460"}, "OVCAR-4": {"system": "OVCAR-4"}, "SK-MEL-2": {"system": "SK-MEL-2"}, "MDA-N": {"system": "MDA-N"}, "SF-539": {"system": "SF-539"}, "HCT-15": {"system": "HCT-15"}, "NCI-H522": {"system": "NCI-H522"}, "SR": {"system": "SR"}, "TK-10": {"system": "TK-10"}, "A498": {"system": "A498"}, "UACC-62": {"system": "UACC-62"}, "MOLT-4": {"system": "MOLT-4"}, "M14": {"system": "M14"}, "CCRF-CEM": {"system": "CCRF-CEM"}, "SW-620": {"system": "SW-620"}, "COLO 205": {"system": "COLO 205"}, "Malme-3M": {"system": "Malme-3M"}, "OVCAR-5": {"system": "OVCAR-5"}, "RPMI-8226": {"system": "RPMI-8226"}, "PC-3": {"system": "PC-3"}, "K562": {"system": "K562"}, "CAKI-1": {"system": "CAKI-1"}, "HT-29": {"system": "HT-29"}, "A549": {"system": "A549"}, "SN12C": {"system": "SN12C"}, "HL-60": {"system": "HL-60"}, "MCF7": {"system": "MCF7"}, "NCI/ADR-RES": {"system": "NCI/ADR-RES"}, "UO-31": {"system": "UO-31"}, "UACC-257": {"system": "UACC-257"}, "NCI-H226": {"system": "NCI-H226"}, "OVCAR-8": {"system": "OVCAR-8"}, "SK-MEL-28": {"system": "SK-MEL-28"}, "T47D": {"system": "T47D"}, "KM12": {"system": "KM12"}, "HOP-92": {"system": "HOP-92"}, "IGROV-1": {"system": "IGROV-1"}, "HCT-116": {"system": "HCT-116"}, "RXF 393": {"system": "RXF 393"}, "SK-MEL-5": {"system": "SK-MEL-5"}, "DU-145": {"system": "DU-145"}, "SNB-19": {"system": "SNB-19"}}, "note": "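Exposure lasted 48 hours, with cells grown in 96-well plates and compounds tested at five concentrations. At the GI50, growth is halved.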 Calls of active or inactive are those of the source. Cut-off read from the data, not from the text of the source: active = GI50 up to about 1.1 µM and inactive = higher."}
{"smiles": "N#Cc1ccc2oc3ccc(C#N)cc3c(=O)c2c1", "values": [{"measurement": "GI50", "setting": "SF-295", "result": "22.9 µM (inactive)"}, {"measurement": "GI50", "setting": "HCC 2998", "result": "58.2 µM (inactive)"}, {"measurement": "GI50", "setting": "NCI-H23", "result": "21.3 µM (inactive)"}, {"measurement": "GI50", "setting": "786-0", "result": "25.8 µM (inactive)"}, {"measurement": "GI50", "setting": "ACHN", "result": "> 100 µM (inactive)"}, {"measurement": "GI50", "setting": "BT-549", "result": "25.5 µM (inactive)"}, {"measurement": "GI50", "setting": "MDA-MB-231", "result": "> 100 µM (inactive)"}, {"measurement": "GI50", "setting": "U-251", "result": "17.1 µM (inactive)"}, {"measurement": "GI50", "setting": "SNB-75", "result": "31.7 µM (inactive)"}, {"measurement": "GI50", "setting": "MDA-MB-435", "result": "34.4 µM (inactive)"}, {"measurement": "GI50", "setting": "SF-268", "result": "35.9 µM (inactive)"}, {"measurement": "GI50", "setting": "OVCAR-3", "result": "> 10 µM (inactive)"}, {"measurement": "GI50", "setting": "NCI-H460", "result": "18.6 µM (inactive)"}, {"measurement": "GI50", "setting": "OVCAR-4", "result": "18 µM (inactive)"}, {"measurement": "GI50", "setting": "SK-MEL-2", "result": "19.6 µM (inactive)"}, {"measurement": "GI50", "setting": "MDA-N", "result": "16.4 µM (inactive)"}, {"measurement": "GI50", "setting": "SF-539", "result": "21.3 µM (inactive)"}, {"measurement": "GI50", "setting": "HCT-15", "result": "> 100", "unit": "µM"}, {"measurement": "GI50", "setting": "NCI-H522", "result": "58.2 µM (inactive)"}, {"measurement": "GI50", "setting": "SR", "result": "41.6 µM (inactive)"}, {"measurement": "GI50", "setting": "TK-10", "result": "24.3 µM (inactive)"}, {"measurement": "GI50", "setting": "A498", "result": "14.8 µM (inactive)"}, {"measurement": "GI50", "setting": "UACC-62", "result": "19 µM (inactive)"}, {"measurement": "GI50", "setting": "MOLT-4", "result": "23.6 µM (inactive)"}, {"measurement": "GI50", "setting": "M14", "result": "> 100 µM (inactive)"}, {"measurement": "GI50", "setting": "CCRF-CEM", "result": "31.8 µM (inactive)"}, {"measurement": "GI50", "setting": "SW-620", "result": "51.5 µM (inactive)"}, {"measurement": "GI50", "setting": "COLO 205", "result": "26.7 µM (inactive)"}, {"measurement": "GI50", "setting": "Malme-3M", "result": "24.2 µM (inactive)"}, {"measurement": "GI50", "setting": "OVCAR-5", "result": "19.7 µM (inactive)"}, {"measurement": "GI50", "setting": "RPMI-8226", "result": "23.2 µM (inactive)"}, {"measurement": "GI50", "setting": "PC-3", "result": "24.7 µM (inactive)"}, {"measurement": "GI50", "setting": "K562", "result": "31.3 µM (inactive)"}, {"measurement": "GI50", "setting": "CAKI-1", "result": "> 100 µM (inactive)"}, {"measurement": "GI50", "setting": "HT-29", "result": "20.2 µM (inactive)"}, {"measurement": "GI50", "setting": "A549", "result": "23 µM (inactive)"}, {"measurement": "GI50", "setting": "SN12C", "result": "> 100 µM (inactive)"}, {"measurement": "GI50", "setting": "HL-60", "result": "17.9 µM (inactive)"}, {"measurement": "GI50", "setting": "MCF7", "result": "24.5 µM (inactive)"}, {"measurement": "GI50", "setting": "NCI/ADR-RES", "result": "> 100 µM (inactive)"}, {"measurement": "GI50", "setting": "UO-31", "result": "> 100 µM (inactive)"}, {"measurement": "GI50", "setting": "UACC-257", "result": "> 100 µM (inactive)"}, {"measurement": "GI50", "setting": "NCI-H226", "result": "35.9 µM (inactive)"}, {"measurement": "GI50", "setting": "OVCAR-8", "result": "> 100 µM (inactive)"}, {"measurement": "GI50", "setting": "SK-MEL-28", "result": "18.5 µM (inactive)"}, {"measurement": "GI50", "setting": "T47D", "result": "> 100 µM (inactive)"}, {"measurement": "GI50", "setting": "KM12", "result": "46.5 µM (inactive)"}, {"measurement": "GI50", "setting": "HOP-92", "result": "41 µM (inactive)"}, {"measurement": "GI50", "setting": "IGROV-1", "result": "32 µM (inactive)"}, {"measurement": "GI50", "setting": "HCT-116", "result": "29 µM (inactive)"}, {"measurement": "GI50", "setting": "RXF 393", "result": "18.3 µM (inactive)"}, {"measurement": "GI50", "setting": "SK-MEL-5", "result": "5.6 µM (inactive)"}, {"measurement": "GI50", "setting": "DU-145", "result": "30.8 µM (inactive)"}, {"measurement": "GI50", "setting": "SNB-19", "result": "27.9 µM (inactive)"}]}
